Measured values taken from US12441762B2, “Hepatitis c virus NS3/4A protease inhibitors” (priority 2019, dated 2025).

Columns and labels:
Test in all cases: biochemical
[1] = target: T1, HCV NS3/4A protease D168A variant (Hepatitis C virus genotype 1a, UniProt P27958, C1185S/D1194A); assay type: biochemical
T1 construct: His-tag (cleaved yes); made in house; host or cells: Escherichia coli BL21(DE3), PET28a vector
Procedure: (§1) The HCV GT1a NS3/4A protease gene described in the Bristol Myers Squibb patent was synthesized by GenScript and cloned into a PET28a expression vector. Cys159 was mutated to a serine residue to prevent disulfide bond formation and facilitate crystallization. The D168A gene was engineered using the site-directed mutagenesis protocol from Stratagene. Protein expression and purification were carried out as previously described.
(§2) Km constants for GT1 and D168A protease were previously determined. […] Inner filter effect corrections were applied to the initial velocities (Vo) at each substrate concentration. Vo versus substrate concentration graphs were globally fit to the Michaelis-Menten equation to obtain the Km value.
(§3) For each assay, 2 nM of NS3/4A protease (GT1a and D168A) was pre-incubated at room temperature for 1 h with increasing concentration of inhibitors in assay buffer (50 mM Tris, 5% glycerol, 10 mM DTT, 0.6 mM LDAO, and 4% dimethyl sulfoxide, pH 7.5). Inhibition assays were performed in non-binding surface 96-well black half-area plates (Corning) in a reaction volume of 60 μL. […] Three independent data sets were collected for each inhibitor with each protease construct.

[2] = test system: HCV NS3/4A protease D168A variant; assay type: biochemical, Hepatitis C virus; settings: for Fold Change of D168A Ki with respect to GT1a wild-type: Table S1, value in parentheses
Procedure: as §1, §2, §3

[3] = target: T2, wild-type HCV NS3/4A protease (GT1a) (Hepatitis C virus genotype 1a, UniProt P27958, C1185S); assay type: biochemical
T2 construct: His-tag (cleaved yes); made in house; host or cells: Escherichia coli BL21(DE3), PET28a vector
Procedure: as §1, §2, §3

T1 sequence (P27958 1027-1208 C1185S/D1194A): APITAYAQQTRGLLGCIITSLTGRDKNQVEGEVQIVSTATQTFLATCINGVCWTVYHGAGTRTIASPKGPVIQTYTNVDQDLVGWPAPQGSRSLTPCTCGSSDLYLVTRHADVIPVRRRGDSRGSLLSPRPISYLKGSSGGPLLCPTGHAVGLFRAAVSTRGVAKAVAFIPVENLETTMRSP
T2 sequence (P27958 1027-1208 C1185S): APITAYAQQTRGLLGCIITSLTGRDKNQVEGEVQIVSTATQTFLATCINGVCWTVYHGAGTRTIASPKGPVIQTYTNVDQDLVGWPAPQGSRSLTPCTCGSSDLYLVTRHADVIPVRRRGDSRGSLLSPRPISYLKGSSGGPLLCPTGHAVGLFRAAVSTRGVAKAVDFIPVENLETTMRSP

Structure (SMILES) | Ki [1] [µM] | Fold Change of D168A Ki with respect to GT1a wild-type [2] | Ki [3] [µM] | fold less potent than the methyl carbamate analog P4P5-3B ([2]; acetamide (3A) vs methyl carbamate (3B)) [fold]
COc1ccc2nc(C)c(O[C@@H]3C[C@H]4C(=O)N[C@]5(C(=O)NS(=O)(=O)C6(C)CC6)C[C@H]5/C=C\CCCCC[C@H](NC(=O)[C@@H](NC(C)=O)C(C)C)C(=O)N4C3)nc2c1 [Inhibitor P4P5-1A, (2R,6S,13aS,14aR,16aS,Z)-6-((S)-2-Acetamido-3-methylbutanamido)-2-((7-methoxy-3-methylquinoxalin-2-yl)oxy)-N-((1-methylcyclopropyl)sulfonyl)-5,16-dioxo-1,2,3,6,7,8,9,10,11,13a,14,15,16,16a-tetradecahydrocyclopropa[e]pyrrolo[1,2-a][1,4]diazacyclopentadecine-14a(5H)-carboxamide] | 0.141 ± 0.018 | (13) fold | 0.0111 ± 0.0005 | –
COC(=O)N[C@H](C(=O)N[C@H]1CCCCC/C=C\[C@@H]2C[C@@]2(C(=O)NS(=O)(=O)C2(C)CC2)NC(=O)[C@@H]2C[C@@H](Oc3nc4cc(OC)ccc4nc3C)CN2C1=O)C(C)C [Inhibitor P4P5-1B, Methyl ((S)-1-(((2R,6S,13aS,14aR,16aS,Z)-2-((7-methoxy-3-methylquinoxalin-2-yl)oxy)-14a-(((1-methylcyclopropyl)sulfonyl)carbamoyl)-5,16-dioxo-1,2,3,5,6,7,8,9,10,11,13a,14,14a,15,16,16a-hexadecahydrocyclopropa[e]pyrrolo[1,2-a][1,4]diazacyclopentadecin-6-yl)amino)-3-methyl-1-oxobutan-2-yl)carbamate] | 0.102 ± 0.0068 | (8) fold | 0.013 ± 0.0008 | –
COc1ccc2nc(C)c(O[C@@H]3C[C@H]4C(=O)N[C@]5(C(=O)NS(=O)(=O)C6(C)CC6)C[C@H]5/C=C\CCCCC[C@H](NC(=O)[C@@H](NC(C)=O)C(C)(C)C)C(=O)N4C3)nc2c1 [Inhibitor P4P5-2A, (2R,6S,13aS,14aR,16aS,Z)-6-((S)-2-Acetamido-3,3-dimethylbutanamido)-2-((7-methoxy-3-methylquinoxalin-2-yl)oxy)-N-((1-methylcyclopropyl)sulfonyl)-5,16-dioxo-1,2,3,6,7,8,9,10,11,13a,14,15,16,16a-tetradecahydrocyclopropa[e]pyrrolo[1,2-a][1,4]diazacyclopentadecine-14a(5H)-carboxamide] | 0.215 ± 0.016 | (9) fold | 0.0239 ± 0.0017 | –
COC(=O)N[C@H](C(=O)N[C@H]1CCCCC/C=C\[C@@H]2C[C@@]2(C(=O)NS(=O)(=O)C2(C)CC2)NC(=O)[C@@H]2C[C@@H](Oc3nc4cc(OC)ccc4nc3C)CN2C1=O)C(C)(C)C [Inhibitor P4P5-2B, Methyl ((S)-1-(((2R,6S,13aS,14aR,16aS,Z)-2-((7-methoxy-3-methylquinoxalin-2-yl)oxy)-14a-(((1-methylcyclopropyl)sulfonyl)carbamoyl)-5,16-dioxo-1,2,3,5,6,7,8,9,10,11,13a,14,14a,15,16,16a-hexadecahydrocyclopropa[e]pyrrolo[1,2-a][1,4]diazacyclopentadecin-6-yl)amino)-3,3-dimethyl-1-oxobutan-2-yl)carbamate] | 0.201 ± 0.015 | (8) fold | 0.0295 ± 0.0019 | –
COc1ccc2nc(C)c(O[C@@H]3C[C@H]4C(=O)N[C@]5(C(=O)NS(=O)(=O)C6(C)CC6)C[C@H]5/C=C\CCCCC[C@H](NC(=O)[C@@H](NC(C)=O)C5CCCC5)C(=O)N4C3)nc2c1 [Inhibitor P4P5-3A, (2R,6S,13aS,14aR,16aS, Z)-6-((S)-2-acetamido-2-cyclopentylacetamido)-2-((7-methoxy-3-methylquinoxalin-2-yl)oxy)-N-((1-methylcyclopropyl)sulfonyl)-5,16-dioxo-1,2,3,6,7,8,9,10,11,13a,14,15,16,16a-tetradecahydrocyclopropa[e]pyrrolo[1,2-a][1,4]diazacyclopentadecine-14a(5H)-carboxamide] | 0.0873 | (39) fold | 0.00223 ± 7e-05 | ~3
COC(=O)N[C@H](C(=O)N[C@H]1CCCCC/C=C\[C@@H]2C[C@@]2(C(=O)NS(=O)(=O)C2(C)CC2)NC(=O)[C@@H]2C[C@@H](Oc3nc4cc(OC)ccc4nc3C)CN2C1=O)C1CCCC1 [Inhibitor P4P5-3B, Methyl ((S)-1-cyclopentyl-2-(((2R,6S,13aS,14aR,16aS,Z)-2-((7-methoxy-3-methylquinoxalin-2-yl)oxy)-14a-(((1-methylcyclopropyl)sulfonyl)carbamoyl)-5,16-dioxo-1,2,3,5,6,7,8,9,10,11,13a,14,14a,15,16,16a-hexadecahydrocyclopropa[e]pyrrolo[1,2-a][1,4]diazacyclopentadecin-6-yl)amino)-2-oxoethyl)carbamate] | 0.0316 ± 0.0021 | (9) fold | 0.00354 ± 0.00013 | –
CC[C@H](C)[C@H](NC(C)=O)C(=O)N[C@H]1CCCCC/C=C\[C@@H]2C[C@@]2(C(=O)NS(=O)(=O)C2(C)CC2)NC(=O)[C@@H]2C[C@@H](Oc3nc4cc(OC)ccc4nc3C)CN2C1=O [Inhibitor P4P5-4, (2R,6S,13aS,14aR,16aS,Z)-6-((2S,3S)-2-acetamido-3-methylpentanamido)-2-((7-methoxy-3-methylquinoxalin-2-yl)oxy)-N-((1-methylcyclopropyl)sulfonyl)-5,16-dioxo-1,2,3,6,7,8,9,10,11,13a,14,15,16,16a-tetradecahydrocyclopropa[e]pyrrolo[1,2-a][1,4]diazacyclopentadecine-t4a(5H)-carboxamide] | 0.081 | (11) fold | 0.0071 ± 0.00024 | –
CCC(C)(C)OC(=O)N[C@H]1CCCCC/C=C\[C@@H]2C[C@@]2(C(=O)NS(=O)(=O)C2(C)CC2)NC(=O)[C@@H]2C[C@@H](Oc3nc4cc(OC)ccc4nc3C(F)(F)F)CN2C1=O [NR02-47, tert-Pentyl ((2R,6S,13aS,14aR,16aS,Z)-2-((7-methoxy-3-(trifluoromethyl)quinoxalin-2-yl)oxy)-14a-(((1-methylcyclopropyl)sulfonyl)carbamoyl)-5,16-dioxo-1,2,3,5,6,7,8,9,10,11,13a,14,14a,15,16,16a-hexadecahydrocyclopropa[e]pyrrolo[1,2-a][1,4]diazacyclopentadecin-6-yl)carbamate] | 0.0151 ± 0.001 | – | 0.00267 ± 0.00023 | –
COc1ccc2nc(C(F)(F)F)c(O[C@@H]3C[C@H]4C(=O)N[C@]5(C(=O)NS(=O)(=O)C6(C)CC6)C[C@H]5/C=C\CCCCC[C@H](NC(=O)OCC(C)(C)C)C(=O)N4C3)nc2c1 [NR02-48, Neopentyl ((2R,6S,13aS,14aR,16aS,Z)-2-((7-methoxy-3-(trifluoromethyl)quinoxalin-2-yl)oxy)-14a-(((1-methylcyclopropyl)sulfonyl)carbamoyl)-5,16-dioxo-1,2,3,5,6,7,8,9,10,11,13a,14,14a,15,16,16a-hexadecahydrocyclopropa[e]pyrrolo[1,2-a][1,4]diazacyclopentadecin-6-yl)carbamate] | 0.013 ± 0.0016 | – | 0.00294 ± 0.00014 | –
COc1ccc2nc(C)c(O[C@@H]3C[C@H]4C(=O)N[C@]5(C(=O)NS(=O)(=O)C6(C)CC6)C[C@H]5/C=C\CCCCC[C@H](NC(=O)OCC5(C(F)(F)F)CC5)C(=O)N4C3)nc2c1 [NR02-49, (1-(Trifluoromethyl)cyclopropyl)methyl ((2R,6S,13aS,14aR,16aS,Z)-2-((7-methoxy-3-methylquinoxalin-2-yl)oxy)-14a-(((1-methylcyclopropyl)sulfonyl)carbamoyl)-5,16-dioxo-1,2,3,5,6,7,8,9,10,11,13a,14,14a,15,16,16a-hexadecahydrocyclopropa[e]pyrrolo[1,2-a][1,4]diazacyclopentadecin-6-yl)carbamate] | 0.0274 ± 0.0012 | – | 0.0009 ± 0.0001 | –
COc1ccc2nc(C(F)(F)F)c(O[C@@H]3C[C@H]4C(=O)N[C@]5(C(=O)NS(=O)(=O)C6(C)CC6)C[C@H]5/C=C\CCCCC[C@H](NC(=O)OCC5(C(F)(F)F)CC5)C(=O)N4C3)nc2c1 [NR02-50, (1-(Trifluoromethyl)cyclopropyl)methyl ((2R,6S,13aS,14aR,16aS,Z)-2-((7-methoxy-3-(trifluoromethyl)quinoxalin-2-yl)oxy)-14a-(((1-methylcyclopropyl)sulfonyl)carbamoyl)-5,16-dioxo-1,2,3,5,6,7,8,9,10,11,13a,14,14a,15,16,16a-hexadecahydrocyclopropa[e]pyrrolo[1,2-a][1,4]diazacyclopentadecin-6-yl)carbamate] | 0.0395 ± 0.0051 | – | 0.00346 ± 0.00026 | –
CCC(CC)OC(=O)N[C@H]1CCCCC/C=C\[C@@H]2C[C@@]2(C(=O)NS(=O)(=O)C2(C)CC2)NC(=O)[C@@H]2C[C@@H](Oc3nc4cc(OC)ccc4nc3C(F)(F)F)CN2C1=O [NR02-52, Pentan-3-yl ((2R,6S,13aS,14aR,16aS,Z)-2-((7-methoxy-3-(trifluoromethyl)quinoxalin-2-yl)oxy)-14a-(((1-methylcyclopropyl)sulfonyl)carbamoyl)-5,16-dioxo-1,2,3,5,6,7,8,9,10,11,13a,14,14a,15,16,16a-hexadecahydrocyclopropa[e]pyrrolo[1,2-a][1,4]diazacyclopentadecin-6-yl)carbamate] | 0.0209 ± 0.0021 | – | 0.0046 ± 0.00066 | –
